This note sets out measurements from US9643941B2, “2,2′-tandem dithiazole compound, preparation method therefor, and use thereof” (SHANGHAI INSTITUTE OF MATERIA MEDICA, CHINESE ACADEMY OF …, priority 2014, dated 2017).

The term IC50 denotes the point on the concentration scale where inhibition reaches its midpoint.

The target in one experiment is Human source HDAC4 (Homo sapiens, UniProt P56524). The experiment can be described thus: Inhibition activity against histone deacetylase 4 (fluorescence, AMC substrate). It counts as biochemical. As to the method: The test was carried out to show the inhibition activity of the compounds in this patent application against human source histone deacetylases 1, 3, 4, 6.
(§1) 2. Materials for the Test: • Human source HDAC1, HDAC3, HDAC4, and HDAC6 were obtained by the Group of Doctor LI Jia in Shanghai Institute of Materia Medica by using the baculovirus expression system and purifying. • Substrate: HDAC1, 3, 4: Ac-Lys-Tyr-Lys (Ac)-AMC; • HDAC6: Boc-lys (Ac)-AMC • ∠All were purchased from GL Biochem (Shanghai) Ltd.;
(§2) Enzyme activity was measured in 96-well or 384-well flat-bottom microplates using fluorescence detection. […] The initial reaction speed was calculated by detecting the changes of the fluorescence signal over time.
(§3) Sample treatment: The sample was dissolved in DMSO and stored at low temperature.
(§4) Illustration about the data processing and the result: In the first screening, the activity of the sample was tested at a single concentration, e.g., 20 μg/ml. […] The bottom and top of the fitting curve were set to 0 and 100 for the most inhibitor screening models.

The next experiment concerns EAE mouse model. The experiment can be described thus: Drug efficacy in EAE mouse model. Format: in vivo. As for the experimental part:
The activity of the compound as a histone deacetylase inhibitor in the treatment of EAE was tested by drug efficacy tests for compounds in the EAE mouse model.
Antigen MOG35-55 ([…]) was added with complete Freund's adjuvant (comprising 5 mg/ml of inactivated Mycobacterium tuberculosis) to be emulsified. 8-week aged female C57BL/6 mouse was injected subcutaneously with 200 μg of emulsified MOG35-55 antigen, while 200 ng of pertussis toxin was injected into each mouse. The day of induction was day 0. On day 2, 200 ng of pertussis toxin was further injected to each mouse. The symptoms of the mice were scored and recorded daily. The scoring rules were as follows,
0 point: normal, asymptomatic
3 points: the mouse was paralysis of hind limbs, and the mouse was loss of mobility.
4 points: the mouse was weakness or paralysis of forelimbs.
5 points: the mouse was dead or dying
2. Materials for the Test: • EAE mouse: Shanghai Slac Laboratory Animal Co., Ltd.; • Antigen MOG35˜55: GL Biochem (Shanghai) Ltd.;
The drug was directly added with the CMC—Na, ground and ultrasonic suspended into a uniform state. The dose was 10 mg/kg, twice a day by intragastric administration. The control group was directly administrated with PBS.

In experiment [1] the test system is human source multiple myeloma cell line 8266. Nature of the experiment: Anti-tumor activity test in cellular level (MTT). Particulars: for IC50: Homo sapiens, Multiple myeloma cell, 72 h, read-out: IC50 on human multiple myeloma cell line 8266.
Description: Tetrazolium salts (MTT) colorimetry was used, the analytic method is based on the metabolic reduction of 3-(4,5-dimethyl-2-thiazolyl)-2,5-diphenyltetrazolium bromide (MTT). The NADP-related dehydrogenase existing in the mitochondria of living cells can reduce the yellow MTT to insoluble bluish violet Formazan, but the enzyme is disappeared in dead cells and MTT cannot be reduced. The optical density was measured at a wavelength of 550/690 nm using a microplate reader after Formazan was dissolved in DMSO.
The cell viability was measured by MTT assay. Cells in logarithmic growth phase were digested with 0.05% trypsin and cell numbers were counted, then 100 μL was inoculated in 96-well plate at a cell density of 2.0×10^3/well, and the plate was placed in an incubator with 5% CO2 at 37° C. overnight. Six concentration gradients were set up for each compound and three wells were set for each concentration. The compound of each concentration was added to the corresponding wells, and incubated at 37° C. in an incubator with 5% CO2 for 72 hours, and then 20 μL of 5 mg/mL MTT was added to each well. After incubation for 3 hours at 37° C., the supernatant was discarded, the remained was added with 100 μL of DMSO to be dissolved, the absorbing value was measured at the light of 550 nm (L1) using a SpectraMAX 340, and the reference wavelength was 690 nm (L2). The value of (L1-L2) was plotted against the concentration of inhibiting agent, and the IC50 was obtained by fitting the formula.
Illustration about the data processing and the result: in the first screening, the activity of the sample was tested at a single concentration, e.g., 20 μg/ml. […] The bottom and top of the fitting curve were set to 0 and 100 for the most inhibitor screening models.
Another experiment addresses Human source HDAC3 (Homo sapiens, UniProt O15379). The experiment can be described thus: Inhibition activity against histone deacetylase 3 (fluorescence, AMC substrate). Particulars: IC50 ± SD/SE. Format: biochemical. As to the method: as §1, §2, §3, §4
Another experiment deals with T1, Human source HDAC6 (Homo sapiens, UniProt Q9UBN7).
T1 sequence (Q9UBN7 1-1215): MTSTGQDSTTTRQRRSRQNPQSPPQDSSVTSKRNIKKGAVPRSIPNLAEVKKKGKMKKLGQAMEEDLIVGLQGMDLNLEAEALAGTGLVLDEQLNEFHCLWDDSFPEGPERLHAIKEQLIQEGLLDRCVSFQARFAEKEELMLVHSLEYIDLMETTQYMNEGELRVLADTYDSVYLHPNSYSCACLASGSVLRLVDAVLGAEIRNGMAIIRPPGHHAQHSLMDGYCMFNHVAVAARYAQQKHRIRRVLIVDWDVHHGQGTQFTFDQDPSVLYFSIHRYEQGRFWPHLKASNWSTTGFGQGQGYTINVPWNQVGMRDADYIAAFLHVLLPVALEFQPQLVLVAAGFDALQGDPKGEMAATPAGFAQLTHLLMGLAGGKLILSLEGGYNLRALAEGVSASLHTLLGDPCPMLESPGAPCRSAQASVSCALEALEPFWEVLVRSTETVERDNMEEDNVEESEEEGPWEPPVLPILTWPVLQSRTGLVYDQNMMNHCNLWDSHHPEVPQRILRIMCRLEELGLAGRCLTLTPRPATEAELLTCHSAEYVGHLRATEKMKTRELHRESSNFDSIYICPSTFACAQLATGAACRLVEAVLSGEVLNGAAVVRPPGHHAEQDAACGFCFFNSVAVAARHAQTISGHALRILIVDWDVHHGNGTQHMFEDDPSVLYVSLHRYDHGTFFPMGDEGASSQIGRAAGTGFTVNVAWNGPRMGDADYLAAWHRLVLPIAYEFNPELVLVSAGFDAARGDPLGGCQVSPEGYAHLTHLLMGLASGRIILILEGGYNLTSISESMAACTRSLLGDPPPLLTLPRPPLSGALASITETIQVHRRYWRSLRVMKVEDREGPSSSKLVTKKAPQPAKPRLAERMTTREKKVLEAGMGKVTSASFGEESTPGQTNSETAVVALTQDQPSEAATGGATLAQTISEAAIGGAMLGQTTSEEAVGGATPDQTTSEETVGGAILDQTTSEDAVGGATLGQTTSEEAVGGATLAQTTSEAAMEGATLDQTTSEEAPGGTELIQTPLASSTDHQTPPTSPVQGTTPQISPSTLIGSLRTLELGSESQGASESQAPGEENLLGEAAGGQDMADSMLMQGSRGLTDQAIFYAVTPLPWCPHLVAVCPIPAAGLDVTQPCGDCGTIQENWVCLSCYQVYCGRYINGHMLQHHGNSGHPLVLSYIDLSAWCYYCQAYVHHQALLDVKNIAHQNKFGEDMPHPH
Nature of the experiment: Inhibition activity against histone deacetylase 6 (fluorescence, AMC substrate). It counts as biochemical. Particulars: for IC50: IC50 ± SD/SE. As to the method:
as §1, §2, §3, §4

The next experiment deals with Human source HDAC1 (Homo sapiens, UniProt Q13547). Nature of the experiment: Inhibition activity against histone deacetylase 1 (fluorescence, AMC substrate). Particulars: IC50 ± SD/SE. It counts as biochemical. As for the experimental part:
as §1, §2, §3, §4

[2] abbreviates: IC50 ± SD/SE, read-out: IC50 HDAC4.

Read-outs that look alike come from different tables or passages of the source.

Chain of Human source HDAC1 (Q13547 whole entry): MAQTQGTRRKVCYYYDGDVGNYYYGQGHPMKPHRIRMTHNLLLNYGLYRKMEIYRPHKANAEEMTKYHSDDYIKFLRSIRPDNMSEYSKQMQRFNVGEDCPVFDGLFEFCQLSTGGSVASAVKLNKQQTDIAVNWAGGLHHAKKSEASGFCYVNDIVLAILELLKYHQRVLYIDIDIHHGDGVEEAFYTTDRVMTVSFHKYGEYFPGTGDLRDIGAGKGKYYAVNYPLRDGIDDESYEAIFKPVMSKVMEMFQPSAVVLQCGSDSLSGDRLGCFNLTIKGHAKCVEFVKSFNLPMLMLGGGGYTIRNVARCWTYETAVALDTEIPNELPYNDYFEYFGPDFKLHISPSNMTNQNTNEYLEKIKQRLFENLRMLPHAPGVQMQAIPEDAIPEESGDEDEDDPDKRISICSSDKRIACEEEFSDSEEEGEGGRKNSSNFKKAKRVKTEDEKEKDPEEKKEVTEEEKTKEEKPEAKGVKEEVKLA
Chain of Human source HDAC3 (O15379 whole entry): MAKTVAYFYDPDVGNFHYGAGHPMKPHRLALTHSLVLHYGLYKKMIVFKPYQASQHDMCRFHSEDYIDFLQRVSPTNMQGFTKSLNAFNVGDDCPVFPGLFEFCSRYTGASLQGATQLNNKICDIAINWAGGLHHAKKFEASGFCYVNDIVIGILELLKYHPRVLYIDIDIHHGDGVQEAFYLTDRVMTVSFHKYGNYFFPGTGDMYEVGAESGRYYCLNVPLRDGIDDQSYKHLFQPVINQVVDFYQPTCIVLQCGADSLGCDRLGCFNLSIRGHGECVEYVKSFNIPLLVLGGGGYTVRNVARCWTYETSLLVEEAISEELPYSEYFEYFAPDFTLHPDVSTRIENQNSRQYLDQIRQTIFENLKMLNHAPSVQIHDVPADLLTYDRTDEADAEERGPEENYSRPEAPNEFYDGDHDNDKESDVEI
Chain of Human source HDAC3 (Q9Y618 395-489 partner limits assumed): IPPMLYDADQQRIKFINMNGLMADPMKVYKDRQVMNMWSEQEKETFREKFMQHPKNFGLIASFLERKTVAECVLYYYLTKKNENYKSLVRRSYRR
Chain of Human source HDAC4 (P56524 whole entry): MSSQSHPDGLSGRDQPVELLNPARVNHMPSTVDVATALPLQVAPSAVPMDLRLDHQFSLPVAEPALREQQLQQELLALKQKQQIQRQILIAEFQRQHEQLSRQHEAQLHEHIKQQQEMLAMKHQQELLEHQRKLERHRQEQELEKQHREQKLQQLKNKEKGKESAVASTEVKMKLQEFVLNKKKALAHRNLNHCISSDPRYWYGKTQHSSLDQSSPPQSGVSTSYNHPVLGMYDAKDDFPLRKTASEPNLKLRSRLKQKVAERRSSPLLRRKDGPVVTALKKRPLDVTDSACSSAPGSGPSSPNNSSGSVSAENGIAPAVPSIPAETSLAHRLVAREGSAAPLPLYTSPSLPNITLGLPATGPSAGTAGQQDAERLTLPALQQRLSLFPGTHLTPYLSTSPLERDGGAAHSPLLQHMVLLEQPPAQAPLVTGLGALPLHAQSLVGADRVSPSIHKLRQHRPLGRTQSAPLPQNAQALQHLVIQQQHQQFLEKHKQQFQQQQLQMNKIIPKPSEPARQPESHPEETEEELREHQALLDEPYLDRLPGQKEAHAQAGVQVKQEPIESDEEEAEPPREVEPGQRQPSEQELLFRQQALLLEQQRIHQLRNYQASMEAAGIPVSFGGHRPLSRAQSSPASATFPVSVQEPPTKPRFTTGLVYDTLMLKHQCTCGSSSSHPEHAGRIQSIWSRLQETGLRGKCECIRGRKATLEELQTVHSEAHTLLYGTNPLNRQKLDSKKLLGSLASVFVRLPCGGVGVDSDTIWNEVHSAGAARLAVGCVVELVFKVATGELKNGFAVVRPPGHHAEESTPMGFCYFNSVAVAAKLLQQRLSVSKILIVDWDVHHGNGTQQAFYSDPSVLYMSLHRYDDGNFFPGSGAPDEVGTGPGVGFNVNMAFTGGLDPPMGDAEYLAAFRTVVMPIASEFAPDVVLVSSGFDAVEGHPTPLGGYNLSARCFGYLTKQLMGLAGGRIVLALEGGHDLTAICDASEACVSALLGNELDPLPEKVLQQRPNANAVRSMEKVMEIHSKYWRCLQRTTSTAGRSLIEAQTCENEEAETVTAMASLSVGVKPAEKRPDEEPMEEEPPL

For `O=C(NCCCCC(=O)C(F)(F)F)c1nc(-c2nccs2)sc1C1CC1` [HD 1], the IC50 was 0.02 µM on Human source HDAC4 (setting [2]), ~0.02 µM at Human source HDAC4 (read-out: IC50 against HDAC4) and 0.333 ± 0.011 µM in experiment [1]. In addition, in the experiment with EAE mouse model (10 mg/kg twice a day, intragastric), the “incidence of EAE model mice” value is “Effectively Reduce the Incidence”. Also, the “therapeutic effect on the clinical symptoms of EAE model mice” value in the experiment with EAE mouse model (10 mg/kg twice a day, intragastric, clinical score (the FIGURE)) was “good therapeutic effect”. For the same compound, the Incidence number/total number in the experiment on EAE mouse model (EAE mice, 10 mg/kg twice a day, intragastric) is on record as 3/6. Moreover, the “disease severity versus solvent control group” value in the experiment with EAE mouse model (P<0.01) is “significantly lower”.
Take `O=C(NCCCCC(=O)C(F)(F)F)c1nc(-c2nc3c(s2)CCCC3)sc1C1CC1` [HD 3]: the IC50 on Human source HDAC4 (setting [2]) was 0.02 µM; in experiment [1], 0.24 ± 0.021 µM.
With `CC(C)Cc1sc(-c2nccs2)nc1C(=O)NCCCCC(=O)C(F)(F)F` [HD 6], the IC50 on Human source HDAC4 (setting [2]) amounted to 0.04 µM; in experiment [1], 0.457 ± 0.012 µM.
Take `CC(=O)N/N=C(\CCCCNC(=O)c1nc(-c2nccs2)sc1C1CC1)C(F)(F)F` [HD 37]: the IC50 stood at 0.16 ± 0.01 µM at Human source HDAC4 (setting [2]); 0.35 µM at Human source HDAC3; 2.14 ± 0.022 µM in experiment [1]; 0.08 ± 0.01 µM against Human source HDAC6; 0.18 ± 0.03 µM on Human source HDAC1. The “activity against HDAC6 on changing trifluoroacetyl ketone to hydrazone” value at Human source HDAC6 was “can be improved”.
With `O=C(CO)N/N=C(/CCCCNC(=O)c1nc(-c2nccs2)sc1C1CC1)C(F)(F)F` [HD 46], the IC50 was determined as 0.45 ± 0.03 µM at Human source HDAC4 (setting [2]); 0.4 ± 0.01 µM on Human source HDAC3; 0.117 µM in experiment [1]; 0.35 ± 0.01 µM against Human source HDAC6; 0.5 ± 0.05 µM against Human source HDAC1. The “increase of activity at the cellular level compared to CFH367-C” value in experiment [1] (cell line 8266) is reported as “about 10 times”. The “activity against HDAC6 on changing trifluoroacetyl ketone to hydrazone” value on Human source HDAC6 is recorded as “can be improved”.
For the compound `CCc1sc(-c2nccs2)nc1C(=O)NCCCCC(=O)C(F)(F)F` [HD 53], the IC50 stood at 0.04 µM on Human source HDAC4 (setting [2]), 0.05 µM at Human source HDAC3, 0.04 µM against Human source HDAC6 and 0.05 µM on Human source HDAC1.
Regarding `O=C(NCCCCC(=O)C(F)(F)F)c1nc(-c2nccs2)sc1Cc1ccccc1` [HD 54], the IC50 on Human source HDAC4 (setting [2]) came to 0.07 µM; at Human source HDAC3 it was 0.06 µM; against Human source HDAC6, 0.06 µM; on Human source HDAC1, 0.07 ± 0.01 µM.
Regarding `Cc1cnc(-c2nc(C(=O)NCCCCC(=O)C(F)(F)F)c(C3CC3)s2)s1` [HD 55], the IC50 at Human source HDAC4 (setting [2]) stood at 0.07 µM; on Human source HDAC6, 0.02 µM.
